Source: US20250127170A1, “TRIAZINE HERBICIDAL COMPOUNDS” (SYNGENTA CROP PROTECTION AG, priority 2021, published 2025)

Tests used:
Format in all cases: in vivo
Settings in all cases: 312 h, evaluated after 13 days, 100=total damage to plant, 0=no damage to plant
[1] = test system: Amaranthus palmeri (AMAPA); assay: Pre-emergence biological efficacy
Description: (§1) Seeds of weeds and/or crops were sown in standard soil in pots (Amaranthus palmeri (AMAPA), Lolium perenne (LOLPE), Euphorbia heterophylla (EPHHL), Ipomoea hederacea (IPOHE), Setaria faberi (SETFA), Echinochloa crus-galli (ECHCG)). After cultivation for one day under controlled conditions in a glasshouse (at 24/19° C., day/night; 16 hours light), the plants were sprayed with an aqueous spray solution derived from the formulation of the technical active ingredient in a small amount of acetone and a special solvent and emulsifier mixture referred to as IF50 (11.12% Emulsogen EL360™+44.44% N-methylpyrrolidone+44.44% Dowanol DPM glycol ether), to create a 50 g/l solution which was then diluted using 0.2% Genapol XO80 as diluent to give the desired final dose of test compound.
(§2) The test plants were then grown under controlled conditions in the glasshouse (at 24/18° C., day/night; 15 hours light; 50% humidity) and watered twice daily. After 13 days the test was evaluated (100=total damage to plant; 0=no damage to plant).

[2] = test system: Echinochloa crus-galli (ECHCG); assay: Pre-emergence biological efficacy
Description: as §1, §2

[3] = test system: Euphorbia heterophylla (EPHHL); assay: Pre-emergence biological efficacy
Description: as §1, §2

[4] = test system: Ipomoea hederacea (IPOHE); assay: Pre-emergence biological efficacy
Description: as §1, §2

Lolium perenne (LOLPE) [5] = assay: Pre-emergence biological efficacy
Description: as §1, §2

Setaria faberi (SETFA) [6] = assay: Pre-emergence biological efficacy
Description: as §1, §2

[7] = test system: Amaranthus palmeri (AMAPA); assay: Post-emergence biological efficacy
Description: as §1, with “Chenopodium album (CHEAL),” for “Lolium perenne (LOLPE),”, “(IPOHE), Eleusine indica (ELEIN), Lolium perenne (LOLPE), Digitaria sanguinalis (DIGSA),” for “(IPOHE),”, “14 days” for “one day”, “compound. The test plants were then grown under controlled conditions in the glasshouse (at 24/18° C., day/night; 15 hours light; 50% humidity) and watered twice daily. After 13 days the test was evaluated (100=total damage to plant; 0=no damage to plant).” for “compound.”

[8] = test system: Chenopodium album (CHEAL); assay: Post-emergence biological efficacy
Description: as §1, with “Chenopodium album (CHEAL),” for “Lolium perenne (LOLPE),”, “(IPOHE), Eleusine indica (ELEIN), Lolium perenne (LOLPE), Digitaria sanguinalis (DIGSA),” for “(IPOHE),”, “14 days” for “one day”, “compound. The test plants were then grown under controlled conditions in the glasshouse (at 24/18° C., day/night; 15 hours light; 50% humidity) and watered twice daily. After 13 days the test was evaluated (100=total damage to plant; 0=no damage to plant).” for “compound.”

[9] = test system: Digitaria sanguinalis (DIGSA); assay: Post-emergence biological efficacy
Description: as §1, with “Chenopodium album (CHEAL),” for “Lolium perenne (LOLPE),”, “(IPOHE), Eleusine indica (ELEIN), Lolium perenne (LOLPE), Digitaria sanguinalis (DIGSA),” for “(IPOHE),”, “14 days” for “one day”, “compound. The test plants were then grown under controlled conditions in the glasshouse (at 24/18° C., day/night; 15 hours light; 50% humidity) and watered twice daily. After 13 days the test was evaluated (100=total damage to plant; 0=no damage to plant).” for “compound.”

[10] = test system: Echinochloa crus-galli (ECHCG); assay: Post-emergence biological efficacy
Description: as §1, with “Chenopodium album (CHEAL),” for “Lolium perenne (LOLPE),”, “(IPOHE), Eleusine indica (ELEIN), Lolium perenne (LOLPE), Digitaria sanguinalis (DIGSA),” for “(IPOHE),”, “14 days” for “one day”, “compound. The test plants were then grown under controlled conditions in the glasshouse (at 24/18° C., day/night; 15 hours light; 50% humidity) and watered twice daily. After 13 days the test was evaluated (100=total damage to plant; 0=no damage to plant).” for “compound.”

Eleusine indica (ELEIN) = assay: Post-emergence biological efficacy
Description: as §1, with “Chenopodium album (CHEAL),” for “Lolium perenne (LOLPE),”, “(IPOHE), Eleusine indica (ELEIN), Lolium perenne (LOLPE), Digitaria sanguinalis (DIGSA),” for “(IPOHE),”, “14 days” for “one day”, “compound. The test plants were then grown under controlled conditions in the glasshouse (at 24/18° C., day/night; 15 hours light; 50% humidity) and watered twice daily. After 13 days the test was evaluated (100=total damage to plant; 0=no damage to plant).” for “compound.”

[11] = test system: Euphorbia heterophylla (EPHHL); assay: Post-emergence biological efficacy
Description: as §1, with “Chenopodium album (CHEAL),” for “Lolium perenne (LOLPE),”, “(IPOHE), Eleusine indica (ELEIN), Lolium perenne (LOLPE), Digitaria sanguinalis (DIGSA),” for “(IPOHE),”, “14 days” for “one day”, “compound. The test plants were then grown under controlled conditions in the glasshouse (at 24/18° C., day/night; 15 hours light; 50% humidity) and watered twice daily. After 13 days the test was evaluated (100=total damage to plant; 0=no damage to plant).” for “compound.”

[12] = test system: Ipomoea hederacea (IPOHE); assay: Post-emergence biological efficacy
Description: as §1, with “Chenopodium album (CHEAL),” for “Lolium perenne (LOLPE),”, “(IPOHE), Eleusine indica (ELEIN), Lolium perenne (LOLPE), Digitaria sanguinalis (DIGSA),” for “(IPOHE),”, “14 days” for “one day”, “compound. The test plants were then grown under controlled conditions in the glasshouse (at 24/18° C., day/night; 15 hours light; 50% humidity) and watered twice daily. After 13 days the test was evaluated (100=total damage to plant; 0=no damage to plant).” for “compound.”

Lolium perenne (LOLPE) [13] = assay: Post-emergence biological efficacy
Description: as §1, with “Chenopodium album (CHEAL),” for “Lolium perenne (LOLPE),”, “(IPOHE), Eleusine indica (ELEIN), Lolium perenne (LOLPE), Digitaria sanguinalis (DIGSA),” for “(IPOHE),”, “14 days” for “one day”, “compound. The test plants were then grown under controlled conditions in the glasshouse (at 24/18° C., day/night; 15 hours light; 50% humidity) and watered twice daily. After 13 days the test was evaluated (100=total damage to plant; 0=no damage to plant).” for “compound.”

Setaria faberi (SETFA) [14] = assay: Post-emergence biological efficacy
Description: as §1, with “Chenopodium album (CHEAL),” for “Lolium perenne (LOLPE),”, “(IPOHE), Eleusine indica (ELEIN), Lolium perenne (LOLPE), Digitaria sanguinalis (DIGSA),” for “(IPOHE),”, “14 days” for “one day”, “compound. The test plants were then grown under controlled conditions in the glasshouse (at 24/18° C., day/night; 15 hours light; 50% humidity) and watered twice daily. After 13 days the test was evaluated (100=total damage to plant; 0=no damage to plant).” for “compound.”

SMILES	pest or weed control at 250 g/ha [1]	pest or weed control at 250 g/ha [2]	pest or weed control at 250 g/ha [3]	pest or weed control at 250 g/ha [4]	pest or weed control at 250 g/ha (Lolium perenne (LOLPE) [5])	pest or weed control at 250 g/ha (Setaria faberi (SETFA) [6])	pest or weed control at 250 g/ha [7]	pest or weed control at 250 g/ha [8]	pest or weed control at 250 g/ha [9]	pest or weed control at 250 g/ha [10]	pest or weed control at 250 g/ha (Eleusine indica (ELEIN))	pest or weed control at 250 g/ha [11]	pest or weed control at 250 g/ha [12]	pest or weed control at 250 g/ha (Lolium perenne (LOLPE) [13])	pest or weed control at 250 g/ha (Setaria faberi (SETFA) [14])
CCOC(=O)C[C@H](C)OC(=O)c1cc(-n2c(=O)n(C)c(=S)n(C)c2=O)ccc1Cl [Compound 1-360 (S-enantiomer), [(1S)-3-ethoxy-1-methyl-3-oxo-propyl] 2-chloro-5-(3,5-dimethyl-2,6-dioxo-4-thioxo-1,3,5-triazinan-1-yl)benzoate]	80%	80%	30%	20%	70%	90%	100%	100%	100%	100%	90%	90%	70%	100%	100%
CCOC(=O)C[C@H](C)OC(=O)c1cc(-n2c(=O)n(C)c(=S)n(C)c2=O)c(F)cc1Cl [Compound 1-369 (S-enantiomer), [(1S)-3-ethoxy-1-methyl-3-oxo-propyl]-2-chloro-5-(3,5-dimethyl-2,6-dioxo-4-thioxo-1,3,5-triazinan-1-yl)-4-fluoro-benzoate]	100%	100%	90%	50%	90%	100%	100%	100%	100%	100%	100%	100%	90%	100%	100%
CCOC(=O)CC(C)N(C)C(=O)c1cc(-n2c(=O)n(C)c(=S)n(C)c2=O)c(F)cc1Cl (stereo not drawn) [Compound 1-405, Ethyl 3-[[2-chloro-5-(3,5-dimethyl-2,6-dioxo-4-thioxo-1,3,5-triazinan-1-yl)-4-fluoro-benzoyl]-methyl-amino]butanoate]	0%	0%	0%	0%	0%	0%	60%	60%	40%	10%	50%	20%	40%	10%	10%
CCOC(=O)CC(CC)OC(=O)c1cc(-n2c(=O)n(C)c(=S)n(C)c2=O)c(F)cc1Cl (stereo not drawn) [Compound 1-420, (3-Ethoxy-1-ethyl-3-oxo-propyl) 2-chloro-5-(3,5-dimethyl-2,6-dioxo-4-thioxo-1,3,5-triazinan-1-yl)-4-fluoro-benzoate]	100%	100%	100%	30%	90%	100%	100%	100%	30%	40%	50%	70%	50%	100%	90%
CCOC(=O)C(Cl)COC(=O)c1cc(-n2c(=O)n(C)c(=S)n(C)c2=O)c(F)cc1Cl (stereo not drawn) [Compound 1-675, (2-Chloro-3-ethoxy-3-oxo-propyl) 2-chloro-5-(3,5-dimethyl-2,6-dioxo-4-thioxo-1,3,5-triazinan-1-yl)-4-fluoro-benzoate]	100%	100%	80%	40%	90%	90%	100%	100%	90%	80%	90%	90%	100%	80%	90%
CCOC(=O)CC1(NC(=O)c2cc(-n3c(=O)n(C)c(=S)n(C)c3=O)c(F)cc2Cl)CC1 [Compound 1-744, Ethyl 2-[1-[[2-chloro-5-(3,5-dimethyl-2,6-dioxo-4-thioxo-1,3,5-triazinan-1-yl)-4-fluoro-benzoyl]amino]cyclopropyl]acetate]	40%	80%	70%	10%	60%	50%	30%	60%	20%	30%	50%	70%	30%	60%	10%
